In patent US20180221329A1, “CIS- AND TRANS-SUFFRUTICOSOL D AS THERAPEUTIC AGENTS” (MIDDLE TENNESSEE STATE UNIVERSITY, priority 2015, published 2018):
Read-outs that look alike come from different tables or passages of the source.

What was measured:
[1] = tested on: MCF-7 (estrogen receptor-positive human breast adenocarcinoma) cells; assay: Cell proliferation assay (AlamarBlue), MCF-7; assay type: cell-based; settings: for IC50: MCF-7, 48 h, AlamarBlue; for Selectivity: MCF-7 versus normal HMEC cells
Protocol: (§1) Cell culture. Four human cancer cell lines including A549 (lung carcinoma), BT20 (estrogen receptor-negative human breast adenocarcinoma), MCF-7 (estrogen receptor-positive human breast adenocarcinoma) and U2OS (human osteosarcoma) were purchased from American Type Culture Collection (ATCC). An A549 cell line that stably expresses Green Fluorescent Protein (GFP) was purchased from Cell BioLabs Inc. (San Diego, Calif., USA). A549, A549-GFP and BT20 cells were cultured in RPMI 1640 media (Sigma-Aldrich, St. Louis, Mo., USA), MCF7 cells were cultured in DMEM medium (ATCC, Manassas, Va., USA), and U20S cells were cultured in McCoy's 5A medium (ATCC, Manassas, Va., USA). As a control, HMEC cells (primary human mammary breast epithelial cells) were purchased from ATCC and cultured in McCoy's 5A medium. All medium contained 10% FBS (Sigma-Aldrich, St. Louis, Mo., USA) and 1% streptomycin and penicillin (Sigma-Aldrich, St. Louis, Mo., USA). These cells were incubated in a humid environment with 5% CO2 at 37° C.
(§2) Cell proliferation assay. The resazurin reduction reagent AlamarBlue (Invitrogen, Frederick, Md., USA) was used to evaluate the cytotoxicity of the compounds. Cells were plated at a density of 5×10^3 cells per well in 96-well microplates with 100 μl culture medium, and were allowed to attach for 16 h prior to treatment. Next, all the medium was replaced with medium containing the cis- or trans-suffruticosol D compounds at seven different concentrations: 320, 100, 32, 10, 3.2, 1.0, and 0.32 μM. The cells were placed in an incubator for 48 h at 37° C. Cells that were treated with medium-containing vehicle (1% DMSO) only serve as negative control. Subsequently, AlamarBlue solution was added to the medium and the cells were incubated in the CO2 incubator for 1 h. The fluorescent intensity change of the dye was measured at Ex 555 nm and Em 590 nm using a plate reader (Molecular Devices, Sunnyvale, Calif., USA). The cytotoxicity was examined by determining by IC50, the dose that inhibited 50% of cell growth, using GraphPad Prism software (GraphPad Software, La Jolla, Calif., USA).
Table 1. IC50 values of cis- and trans-suffruticosol D in selected cancer and normal cell lines. Cells were treated with various concentrations of cis- or trans-suffruticosol D for 48 h, and the viability of cells was evaluated with AlamarBlue dye.

[2] = tested on: phosphorylated NF-κB p65; assay: Western blotting analysis of TNF-α-induced NF-κB p65 phosphorylation; assay type: cell-based, human; settings: 50 μM, 3 h, then 10 ng/mL TNF-α 30 min, A549
Protocol: Western blotting analysis. A549 cells were treated with 50 μM of cis- or trans-suffruticosol D for 3 h then incubated with 10 ng/mL of TNF-α for 30 min. Cells treated with the NF-κB inhibitor Bay11-7082 (10 μM) (Sigma-Aldrich) were used as a positive control, and cells treated with vehicle only were used as a negative control. After treatment, the cells were lysed using M-PER mammalian protein extraction reagent (Pierce PERBIO, Rockford, Ill.) containing proteinase and phosphatase inhibitors (Sigma-Aldrich, USA) and centrifuged at 13,000 rpm for 5 min at 4° C. A Pierce BCA protein assay kit (Thermo Fisher Scientific, Waltham, Mass., USA) was used to determined protein concentrations. Proteins were separated on a 4-20% Tris Glycine gel (Thermo Fisher Scientific, Waltham, Mass., USA), and electrophoretically transferred to a PVDF membrane. The following primary antibodies were used: phosphorylated-NF-κB p65, NF-κB p65 (Cell Signaling Technology, Danver, Mass.) and actin (Santa Cruz Biotechnology, Dallas, Tex.). The membrane was incubated with the primary antibodies at a 1:1000 concentration at 4° C. overnight. After washing with 1×PBS 5 times, the membrane was incubated for 2 h at room temperature with HRP linked anti-rabbit IgG secondary antibodies. […]

[3] = tested on: A549 (lung), BT20 (breast), MCF7 (breast) and U2OS (osteosarcoma) cancer cell lines; assay: Cell proliferation assay, range over the four cancer cell lines; assay type: cell-based, human; settings: for IC50: A549, BT20, MCF7, U2OS, 48 h, read-out: IC50 values in all four cancer cell lines (range); for selectivity (range over cancer cell lines): cancer cell lines versus normal HMEC
Protocol: as §1, §2

[4] = tested on: apoptotic proteins in A549 cells; assay: Apoptosis antibody array; assay type: cell-based, human; settings: 50 μM, 6 h
Protocol: F, Effect of cis- or trans-suffruticosol D on key regulatory proteins of apoptosis, Hsp60, Hsp70, survivin, and X-linked inhibitor of apoptosis protein (XIAP) (n=4).
Apoptosis antibody array. The Human Apoptosis Antibody Array Kit (RayBiotech, Inc., Norcross, Ga. USA) was used to evaluate apoptotic protein expression according to the manufacturer's instructions. A549 cells were plated at 8,000 cells/well intensity in a 96-well plate and then treated with cis or trans-suffruticosol D at a concentration of 50 μM for 6 h. The cells were lysed in lysis buffer with protease inhibitors. The cell lysates were concentrated using a protein concentration column (EMD Millipore, Billerica, Mass., USA) to a total protein concentration of 2 mg/ml. The samples were then diluted 10 fold with assay buffer and incubated with an array membrane for 2 h at room temperature, and washed with washing buffer five times. Subsequently, the cocktail of biotin-conjugated antibody mix was added to the membrane and incubated overnight at 4° C. The samples were then incubated with HRP-conjugated streptavidin for 2 h at room temperature and chemiluminescence substrate was used to detect the signal. Image Studio software (LI-COR Biotechnology) was used to quantify the intensity of each array dot and then normalized to the internal control.

Structure (SMILES)	IC50 ([1]; listed as cis-SD)	Selectivity ([1]; listed as cis-SD)	expression of phosphorylated NF-κB p65 upon TNF-α stimulation [2]	IC50 [3]	selectivity (range over cancer cell lines) [3]	Hsp60 expression [4]	Hsp70 expression [4]	X-linked inhibitor of apoptosis protein (XIAP) expression [4]	survivin expression [4]	IC50 ([1]; listed as trans-SD)	Selectivity ([1]; listed as trans-SD)	IC50 ([3]; Homo sapiens)
Oc1ccc(C=Cc2c3c(cc4c2[C@@H](c2cc(O)cc(O)c2)[C@H](c2ccc(O)cc2)O4)O[C@H](c2ccc(O)cc2)[C@@H]3c2cc(O)cc(O)c2)cc1 [cis-suffruticosol D]	46.8 ± 3.3 µM	5.8	blocked as effectively as the blockage caused by the Bay11-7082 inhibitor control	13.4 to 46.8 µM	9.2-14.7 fold	significant down regulation	significant down regulation	significant down regulation	significant down regulation	–	–	–
Oc1ccc(/C=C/c2c3c(cc4c2[C@@H](c2cc(O)cc(O)c2)[C@H](c2ccc(O)cc2)O4)O[C@H](c2ccc(O)cc2)[C@@H]3c2cc(O)cc(O)c2)cc1 [trans-suffruticosol D]	–	–	almost completely blocked	9.93 to 20.8 µM	5.8-20 fold	significant down regulation	significant down regulation	significant down regulation	significant down regulation	15.8 ± 1.6 µM	9.3	9.93 to 15.8 µM
